Activity calls are given as the source filed them. No cut-off for these calls is given here.
Key:
[1] = tested on: KB; assay: Cytotoxicity against human KB cells at 10 ug/mL; type: functional, cell-based
[2] = tested on: LoVo; assay: Cytotoxicity against human LoVo cells at 10 ug/mL; type: functional, cell-based

C#CCCC[C@H]1OC(=O)[C@H]([C@@H](C)CC)NC(=O)[C@@H]2CCCN2C(=O)[C@H](Cc2ccccc2)OC(=O)[C@H](C(C)C)N(C)C(=O)[C@H](C(C)C)NC(=O)[C@H]1C
Activity [1]: inactive
Activity [2]: inactive

— ChEMBL document CHEMBL1158095, “Trungapeptins A-C, cyclodepsipeptides from the marine cyanobacterium Lyngbya majuscula” (J Nat Prod, 2006)
